Reference: US8597264B2, “Apparatuses, methods, and compositions for the treatment and prophylaxis of chronic wounds” (KCI Licensing, Inc., priority 2011, dated 2013)

How the values were obtained:
MMP-9 = target: T1, MMP-9 (Homo sapiens, UniProt P14780); assay: MMP-9 Colorimetric Drug Discovery Kit (Biomol): MMP activity reduction by dressings; type: biochemical; conditions: compared to control samples with no MMP-9 inhibitor activity
T1 construct: purchased Biomol
Text: A National Diagnostics Hydrogen Peroxide Assay Kit was used to evaluate the antioxidant properties of foam pads and the formulated coated foam pads containing alpha-lipoic acid. Foam pads coated only with gelatin were used as controls. FIG. 2 is a graph showing the percentage of hydrogen peroxide reduction due to reaction with alpha-lipoic acid. An MMP-9 Colorimetric Drug Discovery Kit (Biomol) was used to evaluate the MMP inhibiting/inactivating ability of the formulated foam pads containing alpha-lipoic acid/gelatin (ALA) and gelatin alone (GF GEL). The controls were uncoated foam pads and known potent MMP inactivating drug, NNGH (C13H20N2O5S, available from Enzo® Life Sciences). […] FIG. 4 is a graph showing the release of alpha-lipoic acid from the coating on the foam pads. The coating delivers approximately 70% of the total alpha-lipoic acid within the first day, while the remaining alpha-lipoic acid is released during the next 2-3 days.
Coated polyurethane foam (GranuFoam®) scaffolds described above in Examples 1-2 were further assayed for their ability to reduce MMP activity as compared to non-coated collagen based scaffold such as the Biostep™ and Promogran™ products.

[1] = Release of alpha-lipoic acid from the coating on foam pads; type: physicochemical; conditions: coating on foam pads (FIG. 4)
Text: Polyurethane open-cell reticulated foam pads were selected as the scaffold and were immersed in a solution containing 1.5 wt % of alpha-lipoic acid and 4.5 wt % 225-bloom beef gelatin (and, where applicable, 0.3% EDTA). Gelatin was used as a biocompatible binding agent with good oxygen barrier and sustained release properties for alpha-lipoic acid as well as for its ability to act as a sacrificial substrate for surrounding gelatinases. Alpha-lipoic acid was pre-dissolved in ethanol and then mixed into the final solution. The foam pads were immersed for a sufficient amount of time to coat the pathways formed within the open-cell reticulated foam as described above with respect to the scaffold. After immersion, the foam pads were withdrawn, compressed to remove excess solution, and dried to a constant weight. In some cases, sodium benzoate was added to the formulation as a preservative. Dried foams comprised, by weight, 2% alpha-lipoic acid, 6% gelatin and, where applicable, 0.4% EDTA.
A National Diagnostics Hydrogen Peroxide Assay Kit was used to evaluate the antioxidant properties of foam pads and the formulated coated foam pads containing alpha-lipoic acid. Foam pads coated only with gelatin were used as controls. FIG. 2 is a graph showing the percentage of hydrogen peroxide reduction due to reaction with alpha-lipoic acid. […]

T1 sequence (P14780 107-444 limits assumed): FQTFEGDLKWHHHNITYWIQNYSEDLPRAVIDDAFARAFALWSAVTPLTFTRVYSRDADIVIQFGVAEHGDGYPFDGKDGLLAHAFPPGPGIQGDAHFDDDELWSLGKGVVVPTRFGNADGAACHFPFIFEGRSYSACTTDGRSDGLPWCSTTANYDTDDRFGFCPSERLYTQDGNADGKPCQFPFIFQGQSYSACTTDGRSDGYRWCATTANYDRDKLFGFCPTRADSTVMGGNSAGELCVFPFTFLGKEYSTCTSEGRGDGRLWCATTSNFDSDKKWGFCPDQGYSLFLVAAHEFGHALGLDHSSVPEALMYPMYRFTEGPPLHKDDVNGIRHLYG

**Q.** What does the source list for COc1ccc(S(=O)(=O)N(CC(=O)NO)CC(C)C)cc1 [NNGH]?
**A.** % MMP-9 activity reduction (MMP-9; Table 1 experiment): 90.2%; % MMP-9 activity reduction (MMP-9; Table 2 experiment): 103.8%

**Q.** Which “time over which the remaining alpha-lipoic acid is released” value ([1]; after the first day) does the source give for O=C(O)CCCCC1CCSS1 (stereo not drawn) [alpha-lipoic acid] here?
**A.** 2 to 3 days

**Q.** What about the “share of the total alpha-lipoic acid delivered by the coating” value ([1]; within the first day) of the same compound?
**A.** approximately 70%
